Reference: the NIST ThermoML archive (doi:10.1021/acs.jced.8b00854)

How the values were obtained:
[1] = xn = mol fraction of the nth substance listed; settings: 100 kPa, Liquid, Vibrating tube method
[2] = refractive index (Na D-line) (dimensionless); xn = mol fraction of the nth substance listed; settings: 100 kPa, Liquid, Standard Abbe refractometry

CCCCn1cc[n+](C)c1.O=S(=O)([O-])C(F)(F)F [1-butyl-3-methylimidazolium trifluoromethanesulfonate] + O
Settings | mass density, [1] [kg/m3] | refractive index, [2]
293.15 K, x1 = 0.1001 | 1176.55 | 1.396
293.15 K, x1 = 0.2003 | 1227.39 | 1.4145
293.15 K, x1 = 0.3007 | 1251.78 | 1.421
293.15 K, x1 = 0.4003 | 1266.32 | 1.4265
293.15 K, x1 = 0.5001 | 1275.87 | 1.4301
293.15 K, x1 = 0.5998 | 1282.43 | 1.432
293.15 K, x1 = 0.6995 | 1287.53 | 1.434
293.15 K, x1 = 0.8017 | 1291.5 | 1.4355
293.15 K, x1 = 0.8993 | 1294.38 | 1.4365
303.15 K, x1 = 0.1001 | 1169.14 | 1.3945
303.15 K, x1 = 0.2003 | 1219.44 | 1.411
303.15 K, x1 = 0.3007 | 1243.64 | 1.4195
303.15 K, x1 = 0.4003 | 1258.57 | 1.4245
303.15 K, x1 = 0.5001 | 1267.92 | 1.428
303.15 K, x1 = 0.5998 | 1274.38 | 1.4305
303.15 K, x1 = 0.6995 | 1279.4 | 1.4315
303.15 K, x1 = 0.8017 | 1283.28 | 1.4335
303.15 K, x1 = 0.8993 | 1286.22 | 1.4345
313.15 K, x1 = 0.1001 | 1161.07 | 1.3925
313.15 K, x1 = 0.2003 | 1210.91 | 1.4095
313.15 K, x1 = 0.3007 | 1235.41 | 1.418
313.15 K, x1 = 0.4003 | 1250.38 | 1.423
313.15 K, x1 = 0.5001 | 1259.88 | 1.426
313.15 K, x1 = 0.5998 | 1266.41 | 1.4285
313.15 K, x1 = 0.6995 | 1271.39 | 1.43
313.15 K, x1 = 0.8017 | 1275.29 | 1.431
313.15 K, x1 = 0.8993 | 1278.29 | 1.4325
323.15 K, x1 = 0.1001 | 1153.14 | 1.3915
323.15 K, x1 = 0.2003 | 1201.99 | 1.409
323.15 K, x1 = 0.3007 | 1226.91 | 1.4175
323.15 K, x1 = 0.4003 | 1241.75 | 1.421
323.15 K, x1 = 0.5001 | 1251.81 | 1.4245
323.15 K, x1 = 0.5998 | 1258.46 | 1.4255
323.15 K, x1 = 0.6995 | 1263.41 | 1.4275
323.15 K, x1 = 0.8017 | 1267.34 | 1.429
323.15 K, x1 = 0.8993 | 1270.34 | 1.4305
333.15 K, x1 = 0.1001 | 1143.31 | 1.3905
333.15 K, x1 = 0.2003 | 1193.54 | 1.408
333.15 K, x1 = 0.3007 | 1218.41 | 1.4155
333.15 K, x1 = 0.4003 | 1233.39 | 1.42
333.15 K, x1 = 0.5001 | 1243.49 | 1.422
333.15 K, x1 = 0.5998 | 1250.25 | 1.424
333.15 K, x1 = 0.6995 | 1255.51 | 1.4255
333.15 K, x1 = 0.8017 | 1259.46 | 1.427
333.15 K, x1 = 0.8993 | 1262.47 | 1.428
343.15 K, x1 = 0.1001 | 1133.11 | 1.389
343.15 K, x1 = 0.2003 | 1184.05 | 1.405
343.15 K, x1 = 0.3007 | 1209.18 | 1.415
343.15 K, x1 = 0.4003 | 1224.41 | 1.4185
343.15 K, x1 = 0.5001 | 1234.79 | 1.4215
343.15 K, x1 = 0.5998 | 1241.97 | 1.423
343.15 K, x1 = 0.6995 | 1247.23 | 1.4235
343.15 K, x1 = 0.8017 | 1251.33 | 1.4255
343.15 K, x1 = 0.8993 | 1254.45 | 1.4265

CCn1cc[n+](C)c1.F[B-](F)(F)F [1-ethyl-3-methylimidazolium tetrafluoroborate] + O
Settings | mass density, [1] [kg/m3] | refractive index, [2]
293.15 K, x1 = 0.1001 | 1135.98 | 1.369
293.15 K, x1 = 0.2002 | 1190.68 | 1.3825
293.15 K, x1 = 0.3004 | 1219.59 | 1.3915
293.15 K, x1 = 0.4003 | 1237.8 | 1.398
293.15 K, x1 = 0.5009 | 1251.03 | 1.401
293.15 K, x1 = 0.5999 | 1261.19 | 1.4045
293.15 K, x1 = 0.7002 | 1269.24 | 1.4065
293.15 K, x1 = 0.8004 | 1275.23 | 1.4085
293.15 K, x1 = 0.9011 | 1279.57 | 1.4105
303.15 K, x1 = 0.1001 | 1129.7 | 1.367
303.15 K, x1 = 0.2002 | 1183.7 | 1.381
303.15 K, x1 = 0.3004 | 1212.47 | 1.3895
303.15 K, x1 = 0.4003 | 1230.6 | 1.3955
303.15 K, x1 = 0.5009 | 1243.72 | 1.3995
303.15 K, x1 = 0.5999 | 1253.76 | 1.402
303.15 K, x1 = 0.7002 | 1261.71 | 1.4045
303.15 K, x1 = 0.8004 | 1267.64 | 1.407
303.15 K, x1 = 0.9011 | 1271.96 | 1.408
313.15 K, x1 = 0.1001 | 1123.34 | 1.3655
313.15 K, x1 = 0.2002 | 1176.44 | 1.379
313.15 K, x1 = 0.3004 | 1204.95 | 1.3875
313.15 K, x1 = 0.4003 | 1223.03 | 1.3935
313.15 K, x1 = 0.5009 | 1236.17 | 1.3975
313.15 K, x1 = 0.5999 | 1246.23 | 1.4005
313.15 K, x1 = 0.7002 | 1254.19 | 1.4025
313.15 K, x1 = 0.8004 | 1260.1 | 1.405
313.15 K, x1 = 0.9011 | 1264.39 | 1.4065
323.15 K, x1 = 0.1001 | 1116.34 | 1.364
323.15 K, x1 = 0.2002 | 1169.01 | 1.377
323.15 K, x1 = 0.3004 | 1197.41 | 1.3875
323.15 K, x1 = 0.4003 | 1215.41 | 1.392
323.15 K, x1 = 0.5009 | 1228.52 | 1.3965
323.15 K, x1 = 0.5999 | 1238.61 | 1.399
323.15 K, x1 = 0.7002 | 1246.64 | 1.401
323.15 K, x1 = 0.8004 | 1252.61 | 1.4025
323.15 K, x1 = 0.9011 | 1256.9 | 1.4045
333.15 K, x1 = 0.1001 | 1110.02 | 1.362
333.15 K, x1 = 0.2002 | 1161.89 | 1.376
333.15 K, x1 = 0.3004 | 1190.09 | 1.385
333.15 K, x1 = 0.4003 | 1208.03 | 1.391
333.15 K, x1 = 0.5009 | 1221.09 | 1.395
333.15 K, x1 = 0.5999 | 1231.14 | 1.398
333.15 K, x1 = 0.7002 | 1239.11 | 1.399
333.15 K, x1 = 0.8004 | 1245.05 | 1.401
333.15 K, x1 = 0.9011 | 1249.32 | 1.4025
343.15 K, x1 = 0.1001 | 1101.5 | 1.3615
343.15 K, x1 = 0.2002 | 1153.47 | 1.376
343.15 K, x1 = 0.3004 | 1181.98 | 1.385
343.15 K, x1 = 0.4003 | 1200.26 | 1.39
343.15 K, x1 = 0.5009 | 1213.58 | 1.3935
343.15 K, x1 = 0.5999 | 1223.61 | 1.397
343.15 K, x1 = 0.7002 | 1231.58 | 1.3985
343.15 K, x1 = 0.8004 | 1237.51 | 1.3995
343.15 K, x1 = 0.9011 | 1241.76 | 1.401

CCn1cc[n+](C)c1.O=S(=O)([O-])C(F)(F)F [1-ethyl-3-methylimidazolium trifluoromethanesulfonate] + O
Settings | mass density, [1] [kg/m3] | refractive index, [2]
293.15 K, x1 = 0.1001 | 1209.27 | 1.3885
293.15 K, x1 = 0.2002 | 1281.52 | 1.406
293.15 K, x1 = 0.3005 | 1315.51 | 1.4155
293.15 K, x1 = 0.4002 | 1336.6 | 1.421
293.15 K, x1 = 0.5003 | 1352.45 | 1.425
293.15 K, x1 = 0.5997 | 1364.43 | 1.4275
293.15 K, x1 = 0.6996 | 1372.69 | 1.43
293.15 K, x1 = 0.8011 | 1379.1 | 1.4315
293.15 K, x1 = 0.8992 | 1384.17 | 1.4325
303.15 K, x1 = 0.1001 | 1201.8 | 1.3865
303.15 K, x1 = 0.2002 | 1272.85 | 1.4055
303.15 K, x1 = 0.3005 | 1307.15 | 1.414
303.15 K, x1 = 0.4002 | 1328.01 | 1.4175
303.15 K, x1 = 0.5003 | 1343.96 | 1.423
303.15 K, x1 = 0.5997 | 1356.16 | 1.4255
303.15 K, x1 = 0.6996 | 1364.59 | 1.4275
303.15 K, x1 = 0.8011 | 1370.87 | 1.4295
303.15 K, x1 = 0.8992 | 1375.74 | 1.43
313.15 K, x1 = 0.1001 | 1193.23 | 1.386
313.15 K, x1 = 0.2002 | 1263.86 | 1.403
313.15 K, x1 = 0.3005 | 1298.67 | 1.412
313.15 K, x1 = 0.4002 | 1319.89 | 1.415
313.15 K, x1 = 0.5003 | 1335.41 | 1.421
313.15 K, x1 = 0.5997 | 1347.44 | 1.4235
313.15 K, x1 = 0.6996 | 1355.79 | 1.4255
313.15 K, x1 = 0.8011 | 1362.45 | 1.427
313.15 K, x1 = 0.8992 | 1367.34 | 1.4285
323.15 K, x1 = 0.1001 | 1184.96 | 1.3855
323.15 K, x1 = 0.2002 | 1254.13 | 1.4025
323.15 K, x1 = 0.3005 | 1289.63 | 1.411
323.15 K, x1 = 0.4002 | 1311.02 | 1.414
323.15 K, x1 = 0.5003 | 1326.85 | 1.42
323.15 K, x1 = 0.5997 | 1338.82 | 1.422
323.15 K, x1 = 0.6996 | 1347.42 | 1.4235
323.15 K, x1 = 0.8011 | 1353.98 | 1.4255
323.15 K, x1 = 0.8992 | 1359.01 | 1.426
333.15 K, x1 = 0.1001 | 1175.32 | 1.385
333.15 K, x1 = 0.2002 | 1243.01 | 1.4005
333.15 K, x1 = 0.3005 | 1279.6 | 1.4095
333.15 K, x1 = 0.4002 | 1301.89 | 1.413
333.15 K, x1 = 0.5003 | 1318.27 | 1.418
333.15 K, x1 = 0.5997 | 1329.91 | 1.418
333.15 K, x1 = 0.6996 | 1338.78 | 1.421
333.15 K, x1 = 0.8011 | 1345.55 | 1.423
333.15 K, x1 = 0.8992 | 1350.72 | 1.4237
343.15 K, x1 = 0.1001 | 1162.52 | 1.385
343.15 K, x1 = 0.2002 | 1232.07 | 1.3995
343.15 K, x1 = 0.3005 | 1269.41 | 1.409
343.15 K, x1 = 0.4002 | 1292.35 | 1.413
343.15 K, x1 = 0.5003 | 1309.53 | 1.417
343.15 K, x1 = 0.5997 | 1321.23 | 1.4175
343.15 K, x1 = 0.6996 | 1330.17 | 1.419
343.15 K, x1 = 0.8011 | 1336.93 | 1.421
343.15 K, x1 = 0.8992 | 1342.48 | 1.4215
